Measurements reported in the supplement of paper PMC10307832.

Columns and labels:
Experiment in all cases: relative viability (nuclei count vs DMSO), 5 days (fraction); higher = more cells survive
A-427 = system: A-427
Method in brief: (§1)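 For relative viability, nuclei counts in treated wells were divided by those in vehicle wells. Lung cancer cell lines had been pin-tool dosed in 1536-well plates the day after seeding and cultured for 5 days, then fixed and stained in one step (final 0.05% Triton X-100, 1% formaldehyde, 1 ug/ml Hoechst) and imaged at 4×. Doses were one drug alone or a fixed anchor-drug dose plus five library-drug doses (not always all listed) in √10 steps, and values are duplicate-plate medians.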

ABC-1 = system: ABC-1
Method in brief: as §1

EMC-BAC-2 = system: EMC-BAC-2
Method in brief: as §1

HARA = system: HARA
Method in brief: as §1

HOP-62 = system: HOP-62
Method in brief: as §1

LK-2 = system: LK-2
Method in brief: as §1

LXF-289 = system: LXF-289
Method in brief: as §1

NCI-H1944 = system: NCI-H1944
Method in brief: as §1

NCI-H1993 = system: NCI-H1993
Method in brief: as §1

NCI-H2009 = system: NCI-H2009
Method in brief: as §1

NCI-H2170 = system: NCI-H2170
Method in brief: as §1

NCI-H2228 = system: NCI-H2228
Method in brief: as §1

NCI-H3122 = system: NCI-H3122
Method in brief: as §1

NCI-H322M = system: NCI-H322M
Method in brief: as §1

NCI-H522 = system: NCI-H522
Method in brief: as §1

NCI-H596 = system: NCI-H596
Method in brief: as §1

NCI-H727 = system: NCI-H727
Method in brief: as §1

PC-3 [JPC-3] = system: PC-3 [JPC-3]
Method in brief: as §1

SK-MES-1 = system: SK-MES-1
Method in brief: as §1

SW 1573 = system: SW 1573
Method in brief: as §1

SW 900 = system: SW 900
Method in brief: as §1

Cc1sc2c(c1C)C(c1ccc(Cl)cc1)=N[C@@H](CC(=O)OC(C)(C)C)c1nnc(C)n1-2 [JQ1] + O=C(CCCCCCC(=O)Nc1ccccc1)NO [Vorinostat] (partner 1 µM)
relative viability (A-427; first compound 0.04 µM): 0.861
relative viability (A-427; first compound 0.1265 µM): 0.748
relative viability (A-427; first compound 0.4 µM): 0.789
relative viability (A-427; first compound 1.265 µM): 0.594
relative viability (A-427; first compound 4 µM): 0.429
relative viability (ABC-1; first compound 0.04 µM): 0.963
relative viability (ABC-1; first compound 0.1265 µM): 0.557
relative viability (ABC-1; first compound 0.4 µM): 0.703
relative viability (ABC-1; first compound 1.265 µM): 0.41
relative viability (ABC-1; first compound 4 µM): 0.296
relative viability (EMC-BAC-2; first compound 0.04 µM): 0.423
relative viability (EMC-BAC-2; first compound 0.4 µM): 0.367
relative viability (EMC-BAC-2; first compound 1.265 µM): 0.281
relative viability (EMC-BAC-2; first compound 4 µM): 0.237
relative viability (HARA; first compound 0.04 µM): 0.464
relative viability (HARA; first compound 0.1265 µM): 0.514
relative viability (HARA; first compound 0.4 µM): 0.396
relative viability (HARA; first compound 1.265 µM): 0.347
relative viability (HARA; first compound 4 µM): 0.301
relative viability (HOP-62; first compound 0.04 µM): 0.641
relative viability (HOP-62; first compound 0.1265 µM): 0.553
relative viability (HOP-62; first compound 0.4 µM): 0.305
relative viability (HOP-62; first compound 1.265 µM): 0.12
relative viability (HOP-62; first compound 4 µM): 0.0858
relative viability (LK-2; first compound 0.04 µM): 0.301
relative viability (LK-2; first compound 0.1265 µM): 0.233
relative viability (LK-2; first compound 0.4 µM): 0.281
relative viability (LK-2; first compound 1.265 µM): 0.128
relative viability (LK-2; first compound 4 µM): 0.101
relative viability (LXF-289; first compound 0.04 µM): 0.765
relative viability (LXF-289; first compound 0.1265 µM): 0.693
relative viability (LXF-289; first compound 0.4 µM): 0.665
relative viability (LXF-289; first compound 1.265 µM): 0.582
relative viability (LXF-289; first compound 4 µM): 0.577
relative viability (NCI-H1944; first compound 0.04 µM): 0.524
relative viability (NCI-H1944; first compound 0.1265 µM): 0.405
relative viability (NCI-H1944; first compound 0.4 µM): 0.325
relative viability (NCI-H1944; first compound 1.265 µM): 0.323
relative viability (NCI-H1944; first compound 4 µM): 0.29
relative viability (NCI-H1993; first compound 0.04 µM): 0.851
relative viability (NCI-H1993; first compound 0.1265 µM): 0.785
relative viability (NCI-H1993; first compound 0.4 µM): 0.613
relative viability (NCI-H1993; first compound 1.265 µM): 0.388
relative viability (NCI-H1993; first compound 4 µM): 0.362
relative viability (NCI-H2009; first compound 0.04 µM): 0.701
relative viability (NCI-H2009; first compound 0.1265 µM): 0.444
relative viability (NCI-H2009; first compound 0.4 µM): 0.429
relative viability (NCI-H2009; first compound 1.265 µM): 0.264
relative viability (NCI-H2009; first compound 4 µM): 0.201
relative viability (NCI-H2170; first compound 0.04 µM): 0.866
relative viability (NCI-H2170; first compound 0.1265 µM): 0.609
relative viability (NCI-H2170; first compound 0.4 µM): 0.513
relative viability (NCI-H2170; first compound 1.265 µM): 0.472
relative viability (NCI-H2170; first compound 4 µM): 0.243
relative viability (NCI-H2228; first compound 0.04 µM): 0.605
relative viability (NCI-H2228; first compound 0.1265 µM): 0.826
relative viability (NCI-H2228; first compound 0.4 µM): 0.377
relative viability (NCI-H2228; first compound 1.265 µM): 0.316
relative viability (NCI-H2228; first compound 4 µM): 0.168
relative viability (NCI-H3122; first compound 0.04 µM): 1.01
relative viability (NCI-H3122; first compound 0.1265 µM): 0.506
relative viability (NCI-H3122; first compound 0.4 µM): 1.02
relative viability (NCI-H3122; first compound 1.265 µM): 1.04
relative viability (NCI-H3122; first compound 4 µM): 0.664
relative viability (NCI-H322M; first compound 0.04 µM): 0.853
relative viability (NCI-H322M; first compound 0.1265 µM): 1.12
relative viability (NCI-H322M; first compound 0.4 µM): 0.687
relative viability (NCI-H322M; first compound 1.265 µM): 0.55
relative viability (NCI-H322M; first compound 4 µM): 0.465
relative viability (NCI-H522; first compound 0.04 µM): 0.984
relative viability (NCI-H522; first compound 0.1265 µM): 0.71
relative viability (NCI-H522; first compound 0.4 µM): 0.737
relative viability (NCI-H522; first compound 1.265 µM): 0.497
relative viability (NCI-H522; first compound 4 µM): 0.368
relative viability (NCI-H596; first compound 0.04 µM): 0.683
relative viability (NCI-H596; first compound 0.1265 µM): 0.643
relative viability (NCI-H596; first compound 0.4 µM): 0.436
relative viability (NCI-H596; first compound 1.265 µM): 0.292
relative viability (NCI-H596; first compound 4 µM): 0.311
relative viability (NCI-H727; first compound 0.04 µM): 1.47
relative viability (NCI-H727; first compound 0.1265 µM): 1.14
relative viability (NCI-H727; first compound 0.4 µM): 0.954
relative viability (NCI-H727; first compound 1.265 µM): 1.08
relative viability (NCI-H727; first compound 4 µM): 0.621
relative viability (PC-3 [JPC-3]; first compound 0.04 µM): 0.816
relative viability (PC-3 [JPC-3]; first compound 0.1265 µM): 0.716
relative viability (PC-3 [JPC-3]; first compound 0.4 µM): 0.67
relative viability (PC-3 [JPC-3]; first compound 1.265 µM): 0.537
relative viability (PC-3 [JPC-3]; first compound 4 µM): 0.377
relative viability (SK-MES-1; first compound 0.04 µM): 1.1
relative viability (SK-MES-1; first compound 0.1265 µM): 0.813
relative viability (SK-MES-1; first compound 0.4 µM): 0.464
relative viability (SK-MES-1; first compound 1.265 µM): 0.32
relative viability (SK-MES-1; first compound 4 µM): 0.273
relative viability (SW 1573; first compound 0.04 µM): 0.695
relative viability (SW 1573; first compound 0.1265 µM): 0.365
relative viability (SW 1573; first compound 0.4 µM): 0.338
relative viability (SW 1573; first compound 1.265 µM): 0.231
relative viability (SW 1573; first compound 4 µM): 0.238
relative viability (SW 900; first compound 0.04 µM): 0.448
relative viability (SW 900; first compound 0.1265 µM): 0.611
relative viability (SW 900; first compound 0.4 µM): 0.332
relative viability (SW 900; first compound 1.265 µM): 0.174
relative viability (SW 900; first compound 4 µM): 0.157
